From patent publication US11780833B2, “Emetine derivatives, prodrugs containing same, and methods of treating conditions using same” (HOWARD UNIVERSITY, priority 2011, dated 2023)

test system: not listed separately; assay: pH-responsiveness by HPLC: emetine released in aqueous phosphate buffer; assay type: physicochemical; settings: pH 5.5, 0 hr, 37° C.
Procedure: Relative rates of hydrolysis of the compounds listed in Table 5 below over a 48 hour period were evaluated using the percent emetine released from the acid catalyzed hydrolysis of compounds 1 to 6.
The compounds were incubated in aqueous phosphate buffer at pH 5.5, 6.5 and 7.4 at 37° C. over a 48 hour period. High performance liquid chromatography (HPLC) was employed to analyze the samples and quantify how much emetine was released. The compounds whose hydrolysis to emetine is shown in table 5 are all 100% stable at physiological pH 7.4 up to a 5 day exposure.

| Structure (SMILES) | % Emetine at pH 5.5 [%] |
| --- | --- |
| CCC1CN2CCc3cc(OC)c(OC)cc3C2CC1CC1c2cc(OC)c(OC)cc2CCN1C(=O)/C=C(/CC(=O)O)C(=O)O (centres unmarked) [Compound 6] | 0.0 |
| CCC1CN2CCc3cc(OC)c(OC)cc3C2CC1CC1c2cc(OC)c(OC)cc2CCN1C(=O)/C=C\C(=O)O (centres unmarked) [Compound 2] | 0.0 |
| CCC1CN2CCc3cc(OC)c(OC)cc3C2CC1CC1c2cc(OC)c(OC)cc2CCN1C(=O)/C=C(/C)C(=O)O (centres unmarked) [Compound 3] | 0.0 |
| CCC1CN2CCc3cc(OC)c(OC)cc3C2CC1CC1c2cc(OC)c(OC)cc2CCN1C(=O)/C=C\C(=O)O (centres unmarked) [Compound 4] | 0.0 |

same assay, conditions: pH 5.5, 24 hrs, 37° C.

| Structure (SMILES) | % Emetine at pH 5.5 [%] |
| --- | --- |
| CCC1CN2CCc3cc(OC)c(OC)cc3C2CC1CC1c2cc(OC)c(OC)cc2CCN1C(=O)/C=C(/CC(=O)O)C(=O)O (centres unmarked) [Compound 6] | 33.9 |
| CCC1CN2CCc3cc(OC)c(OC)cc3C2CC1CC1c2cc(OC)c(OC)cc2CCN1C(=O)/C=C\C(=O)O (centres unmarked) [Compound 2] | 36.3 |
| CCC1CN2CCc3cc(OC)c(OC)cc3C2CC1CC1c2cc(OC)c(OC)cc2CCN1C(=O)/C=C(/C)C(=O)O (centres unmarked) [Compound 3] | 78.1 |
| CCC1CN2CCc3cc(OC)c(OC)cc3C2CC1CC1c2cc(OC)c(OC)cc2CCN1C(=O)/C=C\C(=O)O (centres unmarked) [Compound 4] | 19.2 |

same assay, conditions: pH 5.5, 48 hrs, 37° C.

| Structure (SMILES) | % Emetine at pH 5.5 [%] |
| --- | --- |
| CCC1CN2CCc3cc(OC)c(OC)cc3C2CC1CC1c2cc(OC)c(OC)cc2CCN1C(=O)/C=C(/CC(=O)O)C(=O)O (centres unmarked) [Compound 6] | 42.1 |
| CCC1CN2CCc3cc(OC)c(OC)cc3C2CC1CC1c2cc(OC)c(OC)cc2CCN1C(=O)/C=C\C(=O)O (centres unmarked) [Compound 2] | 54.10 |
| CCC1CN2CCc3cc(OC)c(OC)cc3C2CC1CC1c2cc(OC)c(OC)cc2CCN1C(=O)/C=C(/C)C(=O)O (centres unmarked) [Compound 3] | 93.4 |
| CCC1CN2CCc3cc(OC)c(OC)cc3C2CC1CC1c2cc(OC)c(OC)cc2CCN1C(=O)/C=C\C(=O)O (centres unmarked) [Compound 4] | 27.1 |

same assay, conditions: pH 6.5, 0 hr, 37° C.

| Structure (SMILES) | % Emetine at pH 6.5 [%] |
| --- | --- |
| CCC1CN2CCc3cc(OC)c(OC)cc3C2CC1CC1c2cc(OC)c(OC)cc2CCN1C(=O)/C=C(/CC(=O)O)C(=O)O (centres unmarked) [Compound 6] | 0.0 |
| CCC1CN2CCc3cc(OC)c(OC)cc3C2CC1CC1c2cc(OC)c(OC)cc2CCN1C(=O)/C=C\C(=O)O (centres unmarked) [Compound 2] | 0.0 |
| CCC1CN2CCc3cc(OC)c(OC)cc3C2CC1CC1c2cc(OC)c(OC)cc2CCN1C(=O)/C=C(/C)C(=O)O (centres unmarked) [Compound 3] | 0.0 |
| CCC1CN2CCc3cc(OC)c(OC)cc3C2CC1CC1c2cc(OC)c(OC)cc2CCN1C(=O)/C=C\C(=O)O (centres unmarked) [Compound 4] | 0.0 |

same assay, conditions: pH 6.5, 24 hrs, 37° C.

| Structure (SMILES) | % Emetine at pH 6.5 [%] |
| --- | --- |
| CCC1CN2CCc3cc(OC)c(OC)cc3C2CC1CC1c2cc(OC)c(OC)cc2CCN1C(=O)/C=C(/CC(=O)O)C(=O)O (centres unmarked) [Compound 6] | 13.4 |
| CCC1CN2CCc3cc(OC)c(OC)cc3C2CC1CC1c2cc(OC)c(OC)cc2CCN1C(=O)/C=C\C(=O)O (centres unmarked) [Compound 2] | 35.5 |
| CCC1CN2CCc3cc(OC)c(OC)cc3C2CC1CC1c2cc(OC)c(OC)cc2CCN1C(=O)/C=C(/C)C(=O)O (centres unmarked) [Compound 3] | 76.8 |
| CCC1CN2CCc3cc(OC)c(OC)cc3C2CC1CC1c2cc(OC)c(OC)cc2CCN1C(=O)/C=C\C(=O)O (centres unmarked) [Compound 4] | 8.2 |

same assay, conditions: pH 6.5, 48 hrs, 37° C.

| Structure (SMILES) | % Emetine at pH 6.5 [%] |
| --- | --- |
| CCC1CN2CCc3cc(OC)c(OC)cc3C2CC1CC1c2cc(OC)c(OC)cc2CCN1C(=O)/C=C(/CC(=O)O)C(=O)O (centres unmarked) [Compound 6] | 21.1 |
| CCC1CN2CCc3cc(OC)c(OC)cc3C2CC1CC1c2cc(OC)c(OC)cc2CCN1C(=O)/C=C(/C)C(=O)O (centres unmarked) [Compound 3] | 82.7 |
| CCC1CN2CCc3cc(OC)c(OC)cc3C2CC1CC1c2cc(OC)c(OC)cc2CCN1C(=O)/C=C\C(=O)O (centres unmarked) [Compound 4] | 17.1 |

same assay, conditions: pH 7.4 to 8.0, 0 hrs, 37° C.

| Structure (SMILES) | % Emetine at pH 7.4 to 8.0 over 72 hrs [%] |
| --- | --- |
| CCC1CN2CCc3cc(OC)c(OC)cc3C2CC1CC1c2cc(OC)c(OC)cc2CCN1C(=O)/C=C(/CC(=O)O)C(=O)O (centres unmarked) [Compound 6] | 0.0 |
| CCC1CN2CCc3cc(OC)c(OC)cc3C2CC1CC1c2cc(OC)c(OC)cc2CCN1C(=O)/C=C\C(=O)O (centres unmarked) [Compound 2] | 0.0 |
| CCC1CN2CCc3cc(OC)c(OC)cc3C2CC1CC1c2cc(OC)c(OC)cc2CCN1C(=O)/C=C(/C)C(=O)O (centres unmarked) [Compound 3] | 0.0 |
| CCC1CN2CCc3cc(OC)c(OC)cc3C2CC1CC1c2cc(OC)c(OC)cc2CCN1C(=O)/C=C\C(=O)O (centres unmarked) [Compound 4] | 0.0 |

same assay, conditions: pH 7.4 to 8.0, 24 hrs, 37° C.

| Structure (SMILES) | % Emetine at pH 7.4 to 8.0 over 72 hrs [%] |
| --- | --- |
| CCC1CN2CCc3cc(OC)c(OC)cc3C2CC1CC1c2cc(OC)c(OC)cc2CCN1C(=O)/C=C(/CC(=O)O)C(=O)O (centres unmarked) [Compound 6] | 0.0 |
| CCC1CN2CCc3cc(OC)c(OC)cc3C2CC1CC1c2cc(OC)c(OC)cc2CCN1C(=O)/C=C\C(=O)O (centres unmarked) [Compound 2] | 0.0 |
| CCC1CN2CCc3cc(OC)c(OC)cc3C2CC1CC1c2cc(OC)c(OC)cc2CCN1C(=O)/C=C(/C)C(=O)O (centres unmarked) [Compound 3] | 0.0 |
| CCC1CN2CCc3cc(OC)c(OC)cc3C2CC1CC1c2cc(OC)c(OC)cc2CCN1C(=O)/C=C\C(=O)O (centres unmarked) [Compound 4] | 0.0 |

same assay, conditions: pH 7.4 to 8.0, 48 hrs, 37° C.

| Structure (SMILES) | % Emetine at pH 7.4 to 8.0 over 72 hrs [%] |
| --- | --- |
| CCC1CN2CCc3cc(OC)c(OC)cc3C2CC1CC1c2cc(OC)c(OC)cc2CCN1C(=O)/C=C(/CC(=O)O)C(=O)O (centres unmarked) [Compound 6] | 0.0 |
| CCC1CN2CCc3cc(OC)c(OC)cc3C2CC1CC1c2cc(OC)c(OC)cc2CCN1C(=O)/C=C\C(=O)O (centres unmarked) [Compound 2] | 0.0 |
| CCC1CN2CCc3cc(OC)c(OC)cc3C2CC1CC1c2cc(OC)c(OC)cc2CCN1C(=O)/C=C(/C)C(=O)O (centres unmarked) [Compound 3] | 0.0 |
| CCC1CN2CCc3cc(OC)c(OC)cc3C2CC1CC1c2cc(OC)c(OC)cc2CCN1C(=O)/C=C\C(=O)O (centres unmarked) [Compound 4] | 0.0 |

test system: LNCaP cells; assay: Cytotoxicity in LNCaP prostate cancer cell line; assay type: cell-based; settings: Homo sapiens, 168 h, read-out: IC50 after 7 days
Procedure: (§1) Studies were carried out on three prostate cancer cell lines: LNCaP, PC3, and DU145. […] There was not a significant difference in cytotoxicity of emetine between days 3 and 7. […] This increase is most likely due to the release of emetine from the dithiocarbamate salt over the time period. Further drug release studies at pH 5 confirmed about 45% release of emetine from the dithiocarbamate salt after 3-day incubation at this acidic pH maintained at 37° C., whereas release of emetine from the dithiocarbamate salt was not observed at physiological pH (e.g., about 7.4).
(§2) Various compounds prepared according to Examples 1-5 were studied in LNCaP, PC3, and DU145 cells.

| Structure (SMILES) | IC50 [nM] |
| --- | --- |
| CCC1CN2CCc3cc(OC)c(OC)cc3C2CC1CC1c2cc(OC)c(OC)cc2CCN1C(=S)NCc1ccc(Cl)cc1 (centres unmarked) [Compound 11g] | 1590 ± 151 |
| CCC1CN2CCc3cc(OC)c(OC)cc3C2CC1CC1c2cc(OC)c(OC)cc2CCN1C(=O)OCc1ccccc1 (centres unmarked) [Compound 5b] | 2160 ± 122 |
| CCOC(=O)c1ccc(NC(=O)CSC(=S)N2CCc3cc(OC)c(OC)cc3C2CC2CC3c4cc(OC)c(OC)cc4CCN3CC2CC)cc1 (centres unmarked) [Compound 4c] | 1660 ± 564 |
| CCCCCCCCNC(=S)N1CCc2cc(OC)c(OC)cc2C1CC1CC2c3cc(OC)c(OC)cc3CCN2CC1CC (centres unmarked) [Compound 11m] | 1010 ± 249 |
| CCCCCCSC(=S)N1CCc2cc(OC)c(OC)cc2C1CC1CC2c3cc(OC)c(OC)cc3CCN2CC1CC (centres unmarked) [Compound 4h] | 1610 ± 66 |

test system: DU145 cells; assay: cells; assay type: cell-based; settings: Homo sapiens, DU-145, 168 h, read-out: IC50 after 7 days
Procedure: as §1, §2
(§3) Various compounds prepared according to Example 6 were studied in DU145 and PC3 cells. The IC50 was determined at 3, 5, and 7 days.

| Structure (SMILES) | IC50 [nM] |
| --- | --- |
| CCC1CN2CCc3cc(OC)c(OC)cc3C2CC1CC1c2cc(OC)c(OC)cc2CCN1C(=S)NCc1ccc(Cl)cc1 (centres unmarked) [Compound 11g] | 2320 ± 91 |
| CCOC(=O)c1ccc(NC(=O)CSC(=S)N2CCc3cc(OC)c(OC)cc3C2CC2CC3c4cc(OC)c(OC)cc4CCN3CC2CC)cc1 (centres unmarked) [Compound 4c] | 2470 ± 263 |
| CCCCCCSC(=S)N1CCc2cc(OC)c(OC)cc2C1CC1CC2c3cc(OC)c(OC)cc3CCN2CC1CC (centres unmarked) [Compound 4h] | 2300 ± 67 |

test system: PC3 cells; assay: cells; assay type: cell-based; settings: Homo sapiens, PC-3, 168 h, read-out: IC50 after 7 days
Procedure: as §1, §2, §3

| Structure (SMILES) | IC50 [nM] |
| --- | --- |
| CCC1CN2CCc3cc(OC)c(OC)cc3C2CC1CC1c2cc(OC)c(OC)cc2CCN1C(=S)NCc1ccc(Cl)cc1 (centres unmarked) [Compound 11g] | 2860 ± 66.2 |
| CCOC(=O)c1ccc(NC(=O)CSC(=S)N2CCc3cc(OC)c(OC)cc3C2CC2CC3c4cc(OC)c(OC)cc4CCN3CC2CC)cc1 (centres unmarked) [Compound 4c] | 2710 ± 192 |
| CCCCCCCCNC(=S)N1CCc2cc(OC)c(OC)cc2C1CC1CC2c3cc(OC)c(OC)cc3CCN2CC1CC (centres unmarked) [Compound 11m] | 1420 ± 336 |
| CCCCCCSC(=S)N1CCc2cc(OC)c(OC)cc2C1CC1CC2c3cc(OC)c(OC)cc3CCN2CC1CC (centres unmarked) [Compound 4h] | 3030 ± 160 |
